Calls of active or inactive are those of the source. No cut-off for these calls is given here.
Experiments:
[1] = target: Neuronal acetylcholine receptor subunit alpha-3 (Homo sapiens, UniProt P32297); assay: Agonist activity at alpha3 nAchR in human SH-SY5Y cells assessed as stimulation of calcium flux by FLIPR; assay type: functional, cell-based
[2] = test system: Plasma; assay: Stability in rat plasma assessed as compound remaining incubated for 3 hrs; assay type: ADME, cell-free
[3] = target: Acetylcholine receptor; alpha1/beta1/delta/gamma (Homo sapiens, UniProt P02708+P07510+P11230+Q07001); assay: Agonist activity at alpha1beta1gammadelta nAChR nAchR in human TE671 cells assessed as stimulation of calcium flux by FLIPR; assay type: functional, cell-based; conditions: for pIC50: TE-671
[4] = target: T1, Neuronal acetylcholine receptor subunit alpha-7 (Rattus norvegicus, UniProt Q05941); assay: Agonist activity at rat alpha7 nAchR expressed in rat GH4C1 cells assessed as stimulation of calcium flux by FLIPR
[5] = target: Voltage-gated inwardly rectifying potassium channel KCNH2 (Homo sapiens, UniProt Q12809); assay: Inhibition of human ERG expressed in CHO cells; assay type: cell-based
[6] = test system: Rattus norvegicus; assay: Induction of memory enhancement Wistar rat at 1 to 10 mg/kg, po administered 30 mins before acquisition trial pre-treated with 3 mg/kg alpha7 selective antagonist methyllycaconitin by novel object recognition test; assay type: functional, organism-based
[7] = test system: Rattus norvegicus; assay: Inhibition of MK801-Induced prepulse inhibition deficits in Long Evans rat administered orally 60 mins before MK-801 challenge; assay type: functional; conditions: po, read-out: MED
[8] = target: Neuronal acetylcholine receptor subunit alpha-7 (Homo sapiens, UniProt P36544); assay: Agonist activity at human alpha7 nAchR by patch clamp assay; assay type: functional
[9] = Cmax in Wistar rat brain 3 mg/kg, po; assay type: ADME, organism-based; design: dose 3 mg/kg, route oral
[10] = Clearance in Wistar rat 2 mg/kg, iv; assay type: ADME, organism-based; design: dose 2 mg/kg, route intravenous; conditions: in vivo
[11] = target: T1, Neuronal acetylcholine receptor subunit alpha-7; assay: Agonist activity at rat alpha7 nAchR expressed in rat GH4C1 cells by patch clamp assay; assay type: functional, cell-based, GH4-C1
[12] = target: T2, Alpha-2C adrenergic receptor (Homo sapiens) (UniProt P18825); assay: Inhibition of alpha2c adrenergic receptor at 10 uM
T2 sequence (whole entry): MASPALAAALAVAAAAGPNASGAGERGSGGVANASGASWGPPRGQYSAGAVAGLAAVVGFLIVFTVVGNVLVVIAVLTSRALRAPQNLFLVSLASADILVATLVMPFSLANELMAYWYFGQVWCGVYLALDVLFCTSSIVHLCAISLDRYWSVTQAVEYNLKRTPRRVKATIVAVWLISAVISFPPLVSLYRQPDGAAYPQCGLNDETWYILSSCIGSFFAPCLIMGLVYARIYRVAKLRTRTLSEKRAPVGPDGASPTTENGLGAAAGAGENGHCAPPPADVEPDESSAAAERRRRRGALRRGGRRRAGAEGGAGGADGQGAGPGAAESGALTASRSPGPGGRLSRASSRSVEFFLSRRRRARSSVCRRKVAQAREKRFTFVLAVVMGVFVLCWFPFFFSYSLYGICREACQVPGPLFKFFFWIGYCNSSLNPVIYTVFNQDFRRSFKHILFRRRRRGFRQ

[13] = test system: Rattus norvegicus; assay: Induction of memory enhancement Wistar rat at 1 to 10 mg/kg, po administered 30 mins before acquisition trial by novel object recognition test; assay type: functional, organism-based
[14] = Tmax in Wistar rat 10 mg/kg, po; assay type: ADME, organism-based; design: dose 10 mg/kg, route oral; conditions: in vivo
[15] = target: Histamine H3 receptor (Homo sapiens) (UniProt Q9Y5N1); assay: Inhibition of histamine H3 receptor at 10 uM
[16] = target: T3, Alpha-2B adrenergic receptor (Homo sapiens) (UniProt P18089); assay: Inhibition of alpha2b adrenergic receptor at 10 uM
T3 sequence (whole entry): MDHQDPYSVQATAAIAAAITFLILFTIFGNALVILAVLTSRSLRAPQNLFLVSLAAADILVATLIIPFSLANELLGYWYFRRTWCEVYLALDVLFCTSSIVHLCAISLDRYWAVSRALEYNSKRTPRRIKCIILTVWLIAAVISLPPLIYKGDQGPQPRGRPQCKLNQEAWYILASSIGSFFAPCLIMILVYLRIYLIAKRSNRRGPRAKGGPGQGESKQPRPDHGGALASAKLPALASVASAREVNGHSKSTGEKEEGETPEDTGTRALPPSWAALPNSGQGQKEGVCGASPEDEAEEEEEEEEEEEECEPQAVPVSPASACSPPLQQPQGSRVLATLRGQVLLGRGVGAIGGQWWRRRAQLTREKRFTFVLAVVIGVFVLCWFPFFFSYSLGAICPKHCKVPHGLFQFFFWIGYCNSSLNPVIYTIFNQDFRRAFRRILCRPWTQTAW

[17] = test system: Rattus norvegicus; assay: Induction of memory enhancement Wistar rat administered orally 30 mins before acquisition trial by novel object recognition test; assay type: functional; conditions: po, read-out: MED
[18] = target: T4, Alpha-2A adrenergic receptor (Homo sapiens) (UniProt P08913); assay: Inhibition of alpha2a adrenergic receptor at 10 uM
T4 sequence (whole entry): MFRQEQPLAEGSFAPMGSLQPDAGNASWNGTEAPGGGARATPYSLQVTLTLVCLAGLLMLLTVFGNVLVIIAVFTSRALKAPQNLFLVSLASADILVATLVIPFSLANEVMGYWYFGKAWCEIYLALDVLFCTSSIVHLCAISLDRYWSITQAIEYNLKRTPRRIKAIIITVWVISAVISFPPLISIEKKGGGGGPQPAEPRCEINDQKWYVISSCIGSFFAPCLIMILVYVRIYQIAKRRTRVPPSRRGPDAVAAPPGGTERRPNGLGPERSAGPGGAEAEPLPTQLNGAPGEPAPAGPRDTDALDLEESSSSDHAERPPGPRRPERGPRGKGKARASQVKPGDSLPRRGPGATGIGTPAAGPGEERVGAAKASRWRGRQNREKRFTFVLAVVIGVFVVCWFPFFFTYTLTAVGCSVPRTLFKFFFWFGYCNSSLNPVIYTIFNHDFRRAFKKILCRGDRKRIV

[19] = target: T1, Neuronal acetylcholine receptor subunit alpha-7; assay: Displacement of [3H]-epibatidine from rat alpha7 nAchR expressed in rat GH4C1 cell membranes; design: species or system GH4-C1, Membrane
[20] = Toxicity in rat during 7-day tolerability study; assay type: organism-based; conditions: in vivo
[21] = test system: Rattus norvegicus; assay: Inhibition of MK801-Induced prepulse inhibition deficits in Long Evans rat at 1 to 10 mg/kg, po administered 60 mins before MK-801 challenge; assay type: functional, organism-based
[22] = target: T5, 5-hydroxytryptamine receptor 3A (Homo sapiens, UniProt P46098); assay: (§1) Agonist activity at human 5HT3R expressed in HEK293 cells assessed as stimulation of calcium flux by FLIPR; assay type: functional, cell-based
T5 sequence (P46098 whole entry): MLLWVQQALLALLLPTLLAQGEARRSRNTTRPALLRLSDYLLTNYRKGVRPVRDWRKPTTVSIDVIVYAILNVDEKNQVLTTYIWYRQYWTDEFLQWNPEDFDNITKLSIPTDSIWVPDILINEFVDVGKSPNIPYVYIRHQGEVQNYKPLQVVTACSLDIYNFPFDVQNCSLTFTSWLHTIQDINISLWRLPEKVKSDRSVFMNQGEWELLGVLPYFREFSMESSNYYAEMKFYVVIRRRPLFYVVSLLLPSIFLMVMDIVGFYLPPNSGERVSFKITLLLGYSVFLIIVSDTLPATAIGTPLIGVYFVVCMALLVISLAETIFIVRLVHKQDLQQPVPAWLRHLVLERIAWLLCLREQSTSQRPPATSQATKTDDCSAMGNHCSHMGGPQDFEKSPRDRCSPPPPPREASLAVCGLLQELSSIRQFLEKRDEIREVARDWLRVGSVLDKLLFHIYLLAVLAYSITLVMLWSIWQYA

[23] = target: Neuronal acetylcholine receptor subunit alpha-7 (Rattus norvegicus) (UniProt Q05941); assay: Agonist activity at rat alpha7 nAchR expressed in rat GH4C1 cells assessed as stimulation of calcium flux by FLIPR relative to nicotine; assay type: functional, cell-based; conditions: GH4-C1
[24] = target: T6, 5-hydroxytryptamine receptor 3A (Homo sapiens) (UniProt P46098); assay: as §1; assay type: functional, cell-based
T6 sequence (whole entry): T5 sequence (P46098 whole entry)

Sequence of Neuronal acetylcholine receptor subunit alpha-7 (Rattus norvegicus) (Q05941 whole entry): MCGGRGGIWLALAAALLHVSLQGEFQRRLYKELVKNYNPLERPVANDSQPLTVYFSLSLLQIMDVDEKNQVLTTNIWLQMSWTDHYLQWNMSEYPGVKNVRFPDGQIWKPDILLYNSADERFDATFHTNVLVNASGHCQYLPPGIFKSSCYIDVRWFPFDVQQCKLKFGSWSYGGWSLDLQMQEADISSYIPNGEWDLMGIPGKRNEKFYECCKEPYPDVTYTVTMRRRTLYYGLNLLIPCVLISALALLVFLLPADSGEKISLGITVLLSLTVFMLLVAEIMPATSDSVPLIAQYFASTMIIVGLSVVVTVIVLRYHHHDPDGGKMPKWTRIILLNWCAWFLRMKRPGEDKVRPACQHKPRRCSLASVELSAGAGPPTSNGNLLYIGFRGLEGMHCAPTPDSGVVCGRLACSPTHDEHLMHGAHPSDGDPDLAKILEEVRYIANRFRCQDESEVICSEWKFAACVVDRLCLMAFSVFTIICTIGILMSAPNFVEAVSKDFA
T1 sequence (Q05941 whole entry): as above
Sequence of Neuronal acetylcholine receptor subunit alpha-3 (P32297 whole entry): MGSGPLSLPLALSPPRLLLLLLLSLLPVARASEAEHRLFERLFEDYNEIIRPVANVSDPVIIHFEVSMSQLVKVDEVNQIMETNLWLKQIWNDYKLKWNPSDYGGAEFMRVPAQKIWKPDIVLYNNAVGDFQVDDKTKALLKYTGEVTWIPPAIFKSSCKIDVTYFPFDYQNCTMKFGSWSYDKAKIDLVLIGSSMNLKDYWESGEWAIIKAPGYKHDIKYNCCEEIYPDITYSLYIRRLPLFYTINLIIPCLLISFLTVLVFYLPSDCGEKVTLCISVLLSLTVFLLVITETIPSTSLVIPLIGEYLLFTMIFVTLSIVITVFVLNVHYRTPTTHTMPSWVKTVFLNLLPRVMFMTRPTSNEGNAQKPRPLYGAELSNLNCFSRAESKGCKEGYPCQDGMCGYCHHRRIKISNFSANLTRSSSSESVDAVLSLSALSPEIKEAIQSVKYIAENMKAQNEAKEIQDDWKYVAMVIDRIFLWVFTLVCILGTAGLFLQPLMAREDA
Sequence of Acetylcholine receptor; alpha1/beta1/delta/gamma (P02708 whole entry): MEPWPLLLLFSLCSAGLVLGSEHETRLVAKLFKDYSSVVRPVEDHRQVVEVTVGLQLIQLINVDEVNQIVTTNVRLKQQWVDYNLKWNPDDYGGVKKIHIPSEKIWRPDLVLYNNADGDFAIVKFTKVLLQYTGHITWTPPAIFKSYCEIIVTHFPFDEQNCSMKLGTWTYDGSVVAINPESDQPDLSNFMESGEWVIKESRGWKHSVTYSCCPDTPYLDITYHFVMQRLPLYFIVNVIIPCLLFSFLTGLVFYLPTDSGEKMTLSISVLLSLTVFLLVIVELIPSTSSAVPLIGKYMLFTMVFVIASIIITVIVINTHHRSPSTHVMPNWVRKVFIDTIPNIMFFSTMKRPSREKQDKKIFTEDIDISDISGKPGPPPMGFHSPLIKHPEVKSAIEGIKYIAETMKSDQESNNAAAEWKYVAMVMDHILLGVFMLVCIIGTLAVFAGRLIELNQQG
Sequence of Acetylcholine receptor; alpha1/beta1/delta/gamma (P07510 whole entry): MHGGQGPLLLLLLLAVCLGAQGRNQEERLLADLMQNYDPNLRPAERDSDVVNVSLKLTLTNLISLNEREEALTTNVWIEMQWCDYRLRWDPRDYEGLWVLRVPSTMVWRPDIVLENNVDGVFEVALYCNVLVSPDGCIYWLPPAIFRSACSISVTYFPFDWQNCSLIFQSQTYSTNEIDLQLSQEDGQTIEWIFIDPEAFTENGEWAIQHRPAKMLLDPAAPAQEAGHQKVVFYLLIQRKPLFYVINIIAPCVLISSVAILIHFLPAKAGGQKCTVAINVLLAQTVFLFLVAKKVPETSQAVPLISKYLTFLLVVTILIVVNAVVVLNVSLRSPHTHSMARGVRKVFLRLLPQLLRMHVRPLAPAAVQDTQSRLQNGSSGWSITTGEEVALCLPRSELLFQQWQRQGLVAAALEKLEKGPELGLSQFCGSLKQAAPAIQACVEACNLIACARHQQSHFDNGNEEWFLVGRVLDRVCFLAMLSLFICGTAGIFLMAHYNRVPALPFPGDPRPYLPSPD
Sequence of Acetylcholine receptor; alpha1/beta1/delta/gamma (P11230 whole entry): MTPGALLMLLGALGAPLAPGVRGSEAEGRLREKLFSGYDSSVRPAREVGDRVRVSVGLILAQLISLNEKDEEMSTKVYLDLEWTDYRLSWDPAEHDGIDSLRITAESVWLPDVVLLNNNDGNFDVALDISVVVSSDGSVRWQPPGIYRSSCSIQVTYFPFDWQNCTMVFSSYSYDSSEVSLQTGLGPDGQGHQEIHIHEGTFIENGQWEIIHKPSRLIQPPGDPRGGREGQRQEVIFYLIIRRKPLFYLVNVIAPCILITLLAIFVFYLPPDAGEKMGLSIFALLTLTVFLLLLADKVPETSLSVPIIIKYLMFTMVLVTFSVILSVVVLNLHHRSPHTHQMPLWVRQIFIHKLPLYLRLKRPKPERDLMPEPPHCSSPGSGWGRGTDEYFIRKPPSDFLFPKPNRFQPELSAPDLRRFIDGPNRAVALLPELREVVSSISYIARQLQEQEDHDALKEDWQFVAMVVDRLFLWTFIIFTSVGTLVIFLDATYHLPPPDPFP
Sequence of Acetylcholine receptor; alpha1/beta1/delta/gamma (Q07001 whole entry): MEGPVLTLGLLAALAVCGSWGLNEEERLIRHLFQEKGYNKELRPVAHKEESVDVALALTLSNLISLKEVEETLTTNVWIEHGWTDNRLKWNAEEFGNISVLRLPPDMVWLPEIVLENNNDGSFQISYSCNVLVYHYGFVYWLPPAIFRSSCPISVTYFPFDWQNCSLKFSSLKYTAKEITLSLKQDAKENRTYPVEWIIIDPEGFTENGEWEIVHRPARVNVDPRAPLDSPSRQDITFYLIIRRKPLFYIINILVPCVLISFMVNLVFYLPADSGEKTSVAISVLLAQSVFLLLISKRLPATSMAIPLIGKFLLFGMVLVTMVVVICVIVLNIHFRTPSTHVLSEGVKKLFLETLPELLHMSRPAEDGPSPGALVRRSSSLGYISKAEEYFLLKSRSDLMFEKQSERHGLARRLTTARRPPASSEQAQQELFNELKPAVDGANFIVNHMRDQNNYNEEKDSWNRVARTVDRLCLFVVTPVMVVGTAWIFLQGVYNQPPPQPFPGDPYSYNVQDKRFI
Sequence of Histamine H3 receptor (Homo sapiens) (Q9Y5N1 whole entry): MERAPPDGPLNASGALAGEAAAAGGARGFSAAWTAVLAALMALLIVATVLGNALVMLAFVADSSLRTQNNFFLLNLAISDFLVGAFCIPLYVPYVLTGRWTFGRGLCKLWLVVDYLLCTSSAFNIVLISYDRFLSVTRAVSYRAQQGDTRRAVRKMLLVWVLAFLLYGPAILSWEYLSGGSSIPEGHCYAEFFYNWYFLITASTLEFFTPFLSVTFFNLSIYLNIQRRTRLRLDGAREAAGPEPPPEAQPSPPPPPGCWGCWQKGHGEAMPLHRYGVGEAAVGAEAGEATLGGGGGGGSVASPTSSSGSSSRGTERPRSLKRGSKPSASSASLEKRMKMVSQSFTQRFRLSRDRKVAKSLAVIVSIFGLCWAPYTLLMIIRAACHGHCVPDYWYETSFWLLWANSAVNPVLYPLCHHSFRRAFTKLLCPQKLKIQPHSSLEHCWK
Sequence of Voltage-gated inwardly rectifying potassium channel KCNH2 (Q12809 whole entry): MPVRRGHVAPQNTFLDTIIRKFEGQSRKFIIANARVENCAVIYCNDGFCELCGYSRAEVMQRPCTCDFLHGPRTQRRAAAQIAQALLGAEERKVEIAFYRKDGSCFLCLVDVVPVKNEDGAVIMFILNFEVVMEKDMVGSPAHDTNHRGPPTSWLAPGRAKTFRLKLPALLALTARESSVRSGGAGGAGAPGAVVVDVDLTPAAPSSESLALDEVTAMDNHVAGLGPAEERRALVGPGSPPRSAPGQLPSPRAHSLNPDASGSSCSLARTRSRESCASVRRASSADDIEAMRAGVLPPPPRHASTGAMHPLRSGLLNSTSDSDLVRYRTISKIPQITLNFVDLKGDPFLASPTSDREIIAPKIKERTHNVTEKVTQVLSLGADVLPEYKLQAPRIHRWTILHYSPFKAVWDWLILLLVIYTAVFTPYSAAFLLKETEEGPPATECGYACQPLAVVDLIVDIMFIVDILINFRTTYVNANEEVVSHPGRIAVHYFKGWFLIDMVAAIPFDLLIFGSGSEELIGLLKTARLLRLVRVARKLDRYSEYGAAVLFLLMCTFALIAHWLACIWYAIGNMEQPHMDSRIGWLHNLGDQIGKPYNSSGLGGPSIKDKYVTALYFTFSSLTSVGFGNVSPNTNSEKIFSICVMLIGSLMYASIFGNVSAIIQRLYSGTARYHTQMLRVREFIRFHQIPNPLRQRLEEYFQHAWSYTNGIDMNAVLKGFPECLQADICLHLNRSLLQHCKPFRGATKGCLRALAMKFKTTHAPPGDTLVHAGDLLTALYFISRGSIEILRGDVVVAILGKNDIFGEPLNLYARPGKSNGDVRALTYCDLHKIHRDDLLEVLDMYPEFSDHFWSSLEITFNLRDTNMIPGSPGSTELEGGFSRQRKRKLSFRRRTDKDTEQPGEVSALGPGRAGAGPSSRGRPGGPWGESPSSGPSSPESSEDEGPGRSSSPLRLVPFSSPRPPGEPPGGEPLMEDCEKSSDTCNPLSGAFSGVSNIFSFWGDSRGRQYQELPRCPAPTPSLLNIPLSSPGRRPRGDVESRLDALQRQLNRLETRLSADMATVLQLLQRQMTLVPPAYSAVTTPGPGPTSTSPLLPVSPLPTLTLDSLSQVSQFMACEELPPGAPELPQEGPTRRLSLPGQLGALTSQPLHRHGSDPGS

For `COc1cccc(-c2cc(NC(=O)CCCN3CCCCC3)[nH]n2)c1`, the pIC50 [1] was “Active”, the Stability [2] was “Stable” and the pIC50 [3] was “Active”. For the same compound, the EC50 [4] was 0.468 µM.

With `O=C(CCCN1CCCCC1)Nc1cc(-c2cccc(F)c2)n[nH]1` the pIC50 [1] was “Active”, the Stability [2] was “Stable” and the IC50 [5] was 1.29 µM. The pIC50 [3] was “Active” and the EC50 [4] was 0.832 µM.

With `O=C(CCCN1CCCCC1)Nc1cc(-c2cncc(F)c2)n[nH]1` the Activity [6] was “inactive”, the minimal effective dose [7] was 3 mg/kg and the EC50 [8] was 10 µM. The Cmax [9] was 55 ng/g, the clearance [10] was 1.38 L/h/kg and the Stability [2] was “Stable”. The EC50 [11] was 10.7 µM, the inhibition [12] was 57% and the Activity [13] was “Active”. For the same compound, the Tmax [14] was 1 h, the inhibition [15] was 62% and the inhibition [16] was 64%. It also gave an EC50 [4] of 0.74 µM, a minimal effective dose [17] of 3 mg/kg and an inhibition [18] of 73%. The Ki [19] was 0.39 µM, the MTD at 7 day [20] was ≤ 100 mg/kg/day and the inhibition [21] was “Active”.

In the case of `COc1ccc(-c2cc(NC(=O)CCCN3CCCCC3)[nH]n2)cc1`, the IC50 [22] is reported as > 31.6 µM, the IC50 [1] is reported as > 31.6 µM and the Stability [2] is reported as “Stable”. The IC50 [3] was > 31.6 µM and the EC50 [4] was 0.417 µM.

`COc1ccc(-c2cc(NC(=O)CCCN3CCOCC3)[nH]n2)cc1` showed an EC50 [4] of 6.61 µM.

With `COc1ccc(-c2cc(NC(=O)CCCCCN3CCCN(C(C)=O)CC3)[nH]n2)cc1` the Emax [23] was > 90%.

In the case of `COc1ccc(-c2cc(NC(=O)CCCN3CCCCCC3)[nH]n2)cc1`, the IC50 [22] is reported as > 31.6 µM, the IC50 [1] is reported as 7.94 µM and the IC50 [3] is reported as > 31.6 µM. The EC50 [4] was 0.912 µM.

For `COc1ccc(-c2cc(NC(=O)CCCN3CCCN(C(C)=O)CC3)[nH]n2)cc1`, the Stability [2] was “Stable”, the EC50 [4] was 0.912 µM and the Emax [23] was > 90%.

With `COc1ccc(-c2cc(NC(=O)CCN3CCCN(C(C)=O)CC3)[nH]n2)cc1` the EC50 [4] was 8.51 µM and the Emax [23] was > 90%.

With `COc1ccc(-c2cc(NC(=O)CCCCCN3CCCN(C(C)=O)CC3)n[nH]2)cc1` the EC50 [4] was 1.2 µM.

Work on `COc1ccc(-c2cc(NC(=O)CCCN3CCCOCC3)[nH]n2)cc1` yielded an EC50 [4] of 1.17 µM.

For `CC(C)(C)c1cc(NC(=O)CCCN2CCCCC2)[nH]n1`, the pIC50 [24] was “inactive”, the pIC50 [1] was “inactive” and the pIC50 [3] was “inactive”. For the same compound, the EC50 [4] was > 31.6 µM.

Reference: ChEMBL document CHEMBL2177080, “N-[5-(5-fluoropyridin-3-yl)-1H-pyrazol-3-yl]-4-piperidin-1-ylbutyramide (SEN78702, WYE-308775): a medicinal chemistry effort toward an α7 nicotinic acetylcholine receptor agonist preclinical candidate” (J Med Chem, 2012)
